Laboratory results from patent US10329289B2, “6,7-dihydro-5H-pyrrolo[3,4-B]pyridin-5-one allosteric modulators of the M4 muscarinic acetylcholine receptor” (Merck Sharp & Dohme Corp., priority 2015, dated 2019).

Each molecule was assayed against T1, human M4 muscarinic acetylcholine receptor (Homo sapiens, UniProt P08173) (assay: human FLIPR-based M4 PAM assay (Ca2+ mobilization, CHO-K1 cells with human M4 receptor and Gαqi5)). Settings: acetylcholine at 20% of maximum response, read-out: M4 PAM IP.
T1 construct: expressed in transfected cells; host or cells: CHO-K1
T1 sequence (P08173 1-479): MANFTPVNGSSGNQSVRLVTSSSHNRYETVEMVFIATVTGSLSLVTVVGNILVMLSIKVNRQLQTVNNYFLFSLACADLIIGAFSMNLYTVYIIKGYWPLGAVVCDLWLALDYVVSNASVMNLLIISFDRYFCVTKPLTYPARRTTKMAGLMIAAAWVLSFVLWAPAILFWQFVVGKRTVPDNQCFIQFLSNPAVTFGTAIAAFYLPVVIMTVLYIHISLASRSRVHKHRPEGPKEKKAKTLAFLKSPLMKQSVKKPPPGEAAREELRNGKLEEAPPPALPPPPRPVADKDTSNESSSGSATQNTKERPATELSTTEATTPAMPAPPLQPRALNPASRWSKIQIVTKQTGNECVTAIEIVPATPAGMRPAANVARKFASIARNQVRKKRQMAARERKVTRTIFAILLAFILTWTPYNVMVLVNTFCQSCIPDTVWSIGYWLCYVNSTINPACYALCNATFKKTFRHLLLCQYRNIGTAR
Format: cell-based
In short: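 Calcium-mobilization (FLIPR) readout in dye-loaded CHO-K1 cells co-expressing human M4 receptor and Gαqi5. Potentiation measured against acetylcholine at a concentration giving 20% of maximal response, with an optional 70% addition; the reported value is the curve inflection point from a 4-parameter logistic fit.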

Compared with `Cc1cc2c(nc1N1CCC(Oc3ccc(NCCO)nc3)CC1)CNC2=O` [Example 324E, 2-(4-((6-((2-Hydroxyethyl)amino)pyridin-3-yl)oxy)piperidin-1-yl)-3-methyl-6,7-dihydro-5H-pyrrolo[3,4-b]pyridin-5-one], `CCc1cc2c(nc1N1CCC(Oc3ccc4c(c3)C[C@@H](O)C4)CC1)CNC2=O` [Example 166B, (S)-3-ethyl-2-(4-((2-hydroxy-2,3-dihydro-1H-inden-5-yl)oxy)piperidin-1-yl)-6,7-dihydro-5H-pyrrolo[3,4-b]pyridin-5-one] is 7.4-fold lower in EC50: 420 nM for the first, 57 nM for the second.

Compared with `Cc1cc2c(nc1N1CCC(OC[C@@]3(C)C[C@H]3F)CC1)CNC2=O` (single isomer, unassigned) [Example 160B], `Cc1cc2c(nc1N1CCC(Oc3ccc(OC4CCC4)nc3)CC1)CNC2=O` [Example 37, 2-(4-((6-cyclobutoxypyridin-3-yl)oxy)piperidin-1-yl)-3-methyl-6,7-dihydro-5H-pyrrolo[3,4-b]pyridin-5-one] is 1.8-fold higher in EC50: 96 nM for the first, 172 nM for the second.

First: Cc1cc2c(nc1N1CCC(Oc3ccc4c(cnn4CCO)c3)CC1)CNC2=O [Example 371, 2-(4-((1-(2-Hydroxyethyl)-1H-indazol-5-yl)oxy)piperidin-1-yl)-3-methyl-6,7-dihydro-5H-pyrrolo[3,4-b]pyridin-5-one]
Second: Cc1cc2c(nc1N1CCC(OCC3(C)CC3C#N)CC1)CNC2=O (single isomer, unassigned) [Example 191A]
The EC50 of the first is 15-fold lower: 100 nM for the first, 1470 nM for the second.

Compared with `Cc1c(N2CCC(Oc3ccc4c(c3)COC4)CC2)nc2c(c1C)C(=O)N([C@H](C)CO)C2` [Example 266C, (R)-2-(4-((1,3-dihydro-2-benzofuran-5-yl)oxy)piperidin-1-yl)-6-(1-hydroxypropan-2-yl)-3,4-dimethyl-6,7-dihydro-5H-pyrrolo[3,4-b]pyridin-5-one], `Cc1c(N2CCC(Oc3ccc4c(c3)CCOC4)CC2)nc2c(c1C)C(=O)NC2` [Example 336, 2-(4-(isochroman-6-yloxy)piperidin-1-yl)-3,4-dimethyl-6,7-dihydro-5H-pyrrolo[3,4-b]pyridin-5-one] is 2.8-fold higher in EC50: 64 nM for the first, 182 nM for the second. The first is the more potent here.

First: CCc1cc2c(nc1N1CCC(OCC3(C)CC3)CC1)[C@@H](CO)N(C)C2=O [Example 341, (S)-3-ethyl-7-(hydroxymethyl)-6-methyl-2-(4-((1-methylcyclopropyl)methoxy)piperidin-1-yl)-6,7-dihydro-5H-pyrrolo[3,4-b]pyridin-5-one]
Second: COc1ccc(OC2CCN(c3nc4c(cc3C)C(=O)NC4CO)CC2)cn1 (centres unmarked) [Example 270, 7-(Hydroxymethyl)-2-(4-((6-methoxypyridin-3-yl)oxy)piperidin-1-yl)-3-methyl-6,7-dihydro-5H-pyrrolo[3,4-b]pyridin-5-one]
The EC50 of the first is 2.1-fold lower: 23 nM for the first, 48 nM for the second. The first is the more potent here.

Compared with `Cc1cc2c(nc1N1CCC(Oc3ccc(F)cc3)CC1)[C@H](CO)N(C)C2=O` [Example 280, (R)-2-(4-(4-fluorophenoxy)piperidin-1-yl)-7-(hydroxymethyl)-3,6-dimethyl-6,7-dihydro-5H-pyrrolo[3,4-b]pyridin-5-one], `Cc1cc2c(nc1N1CCC(OCC3(C)CC3C#N)CC1)CNC2=O` (single isomer, unassigned) [Example 191B] is 68-fold higher in EC50: 438 nM for the first, 30000 nM for the second.

First: Cc1c(N2CCC(Oc3ccc4c(c3)COC4)CC2)nc2c(c1C)C(=O)N(CC(=O)O)C2 [Example 266B, 2-(2-(4-((1,3-dihydro-2-benzofuran-5-yl)oxy)piperidin-1-yl)-3,4-dimethyl-5-oxo-5,7-dihydro-6H-pyrrolo[3,4-b]pyridin-6-yl)acetic acid]
Second: Cc1c(N2CC[C@@H](Oc3ccc4c(c3)COC4)[C@@H](F)C2)nc2c(c1C)C(=O)NC2 [Example 225, 2-((3S,4R)-4-((1,3-dihydro-2-benzofuran-5-yl)oxy)-3-fluoropiperidin-1-yl)-3,4-dimethyl-6,7-dihydro-5H-pyrrolo[3,4-b]pyridin-5-one]
The EC50 of the first is 2.8-fold higher: 53 nM for the first, 19 nM for the second. The second is the more potent here.

Compared with `Cc1cc2c(nc1N1CCC(Oc3ccc4c(c3)CCNC4)CC1)CNC2=O` [Example 144, 3-Methyl-2-(4-((1,2,3,4-tetrahydroisoquinolin-6-yl)oxy)piperidin-1-yl)-6,7-dihydro-5H-pyrrolo[3,4-b]pyridin-5-one], `Cc1cc2c(nc1N1CCC(OCC3CC3)CC1)CNC2=O` [Example 9, 2-(4-(cyclopropylmethoxy)piperidin-1-yl)-3-methyl-6,7-dihydro-5H-pyrrolo[3,4-b]pyridin-5-one] is 3.8-fold lower in EC50: 316 nM for the first, 83 nM for the second.

Going from `Cc1cc2c(nc1N1CCC(Oc3cccc(C#N)c3)CC1)[C@H](CO)N(C)C2=O` [Example 346, (R)-3-((1-(7-(hydroxymethyl)-3,6-dimethyl-5-oxo-6,7-dihydro-5H-pyrrolo[3,4-b]pyridin-2-yl)piperidin-4-yl)oxy)benzonitrile] to `COc1ccc(OC2CCN(c3nc4c(cc3C)C(=O)N(C)C4C(C)(C)O)CC2)cn1` (centres unmarked) [Example 322, 7-(2-Hydroxypropan-2-yl)-2-(4-((6-methoxypyridin-3-yl)oxy)piperidin-1-yl)-3,6-dimethyl-6,7-dihydro-5H-pyrrolo[3,4-b]pyridin-5-one], the EC50 falls from 3080 nM to 499 nM (6.2-fold).

Compared with `Cc1cc2c(nc1N1CCC(OCC3(C)CCCC3)CC1)CNC2=O` [Example 178, 3-methyl-2-(4-((1-methylcyclopentyl)meth-oxy)piperidin-1-yl)-6,7-dihydro-5H-pyrrolo[3,4-b]pyridin-5-one], “3-methyl-2-(4-(3,3,3- trifluoro-2- hydroxypropoxy)piperi- din-1-yl)-6,7-dihydro- 5H-pyrrolo[3,4- b]pyridin-5-one [Example 179]” is 15-fold lower in EC50: 2480 nM for the first, 168 nM for the second. The second is the more potent here.

`Cc1c(N2CC[C@@H](OCC3(C)CC3)[C@@H](F)C2)nc2c(c1C)C(=O)N(C)[C@H]2CO` [Example 342A, (R)-2-((3S,4R)-3-fluoro-4-((1-methylcyclopropyl)methoxy)piperidin-1-yl)-7-(hydroxymethyl)-3,4,6-trimethyl-6,7-dihydro-5H-pyrrolo[3,4-b]pyridin-5-one] and `Cc1c(N2CCC(Oc3ccc4c(c3)CCOC4)CC2)nc2c(c1C)C(=O)N(C)[C@H]2CO` [Example 370, (R)-7-(hydroxymethyl)-2-(4-(isochroman-6-yloxy)piperidin-1-yl)-3,4,6-trimethyl-6,7-dihydro-5H-pyrrolo[3,4-b]pyridin-5-one] are within 1.5-fold of each other in EC50: 884 nM for the first, 1190 nM for the second.

First: CCc1cc2c(nc1N1CC[C@@H](Oc3cccnc3)[C@@H](F)C1)CNC2=O (single isomer, unassigned) [Example 216, 3-ethyl-2-((3R,4S)- or (3S,4R)-3-fluoro-4-(pyridin-3-yloxy)piperidin-1-yl)-6,7-dihydro-5H-pyrrolo[3,4-b]pyridin-5-one]
Second: Cc1c(N2CC[C@@H](Oc3cnc4c(c3)COC4)[C@@H](F)C2)nc2c(c1C)C(=O)NC2 [Example 165A, 2-((3S,4R)-4-((5,7-dihydrofuro[3,4-b]pyridin-3-yl)oxy)-3-fluoropiperidin-1-yl)-3,4-dimethyl-6,7-dihydro-5H-pyrrolo[3,4-b]pyridin-5-one]
The EC50 of the first is 11-fold higher: 888 nM for the first, 83 nM for the second.

First: Cc1cc2c(nc1N1CCC(Oc3cccc(C#N)c3)CC1)[C@H](C)N(C)C2=O [Example 28B, (S)-3-((1-(3,6,7-trimethyl-5-oxo-6,7-dihydro-5H-pyrrolo[3,4-b]pyridin-2-yl)piperidin-4-yl)oxy)benzonitrile]
Second: Cc1cc2c(nc1N1CCC(Oc3ccc4nccn4c3)CC1)CNC2=O [Example 182A, 2-(4-(imidazo[1,2-a]pyridin-6-yloxy)piperidin-1-yl)-3-methyl-6,7-dihydro-5H-pyrrolo[3,4-b]pyridin-5-one]
The EC50 of the first is 4.2-fold higher: 1980 nM for the first, 473 nM for the second. The second is the more potent here.

`Cc1cc2c(nc1N1CCC(Oc3ccc4[nH]ncc4c3)CC1)CNC2=O` [Example 167, 2-(4-((1H-indazol-5-yl)oxy)piperidin-1-yl)-3-methyl-6,7-dihydro-5H-pyrrolo[3,4-b]pyridin-5-one] and `Cc1cc2c(nc1N1CC[C@@H](Oc3ccc4c(c3)COC4)[C@@H](F)C1)[C@@H](CO)N(C)C2=O` [Example 278, (S)-2-((3S,4R)-4-((1,3-dihydro-2-benzofuran-5-yl)oxy)-3-fluoropiperidin-1-yl)-7-(hydroxymethyl)-3,6-dimethyl-6,7-dihydro-5H-pyrrolo[3,4-b]pyridin-5-one] are within 1.5-fold of each other in EC50: 14 nM for the first, 19 nM for the second.

`Cc1cc2c(nc1N1CCC(Oc3cccc(C#N)c3)CC1)CN(C1CC1)C2=O` [Example 249, 3-((1-(6-cyclopropyl-3-methyl-5-oxo-6,7-dihydro-5H-pyrrolo[3,4-b]pyridin-2-yl)piperidin-4-yl)oxy)benzonitrile] and `CCOc1ccc(OC2CCN(c3nc4c(cc3C)C(=O)N(C)[C@@H]4CO)CC2)cn1` [Example 286, (S)-2-(4-((6-ethoxypyridin-3-yl)oxy)piperidin-1-yl)-7-(hydroxymethyl)-3,6-dimethyl-6,7-dihydro-5H-pyrrolo[3,4-b]pyridin-5-one] are within 1.5-fold of each other in EC50: 32 nM for the first, 38 nM for the second.

First: CCc1cc2c(nc1N1CC[C@@H](Oc3ccc4c(c3)COC4)[C@H](F)C1)CNC2=O [Example 217, 2-((3R,4R)-4-((1,3-dihydro-2-benzofuran-5-yl)oxy)-3-fluoropiperidin-1-yl)-3-ethyl-6,7-dihydro-5H-pyrrolo[3,4-b]pyridin-5-one]
Second: Cc1cc2c(nc1N1CCC(Oc3cccc(C#N)c3)CC1)CNC2=O [Example 3, 3-((1-(3-methyl-5-oxo-6,7-dihydro-5H-pyrrolo[3,4-b]pyridin-2-yl)piperidin-4-yl)oxy)benzonitrile]
The EC50 of the first is 1.7-fold higher: 42 nM for the first, 25 nM for the second.
